Relative viability data for seven cell lines are collected here from the supplement of paper PMC10307832.

Holding throughout (assay): relative viability (nuclei count vs DMSO), 5 days (fraction); higher = more cells survive
Compound in test [1]: CCn1c(-c2nonc2N)nc2c(C#CC(C)(C)O)ncc(OC[C@H]3CCCNC3)c21 + CS(=O)(=O)N1CCN(Cc2cc3nc(-c4cccc5[nH]ncc45)nc(N4CCOCC4)c3s2)CC1 [Pictilisib] (partner 1 µM)
Summed up: (§1)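 A single step with final 0.05% Triton X-100, 1% formaldehyde and 1 ug/ml Hoechst fixed the cells and stained nuclei 5 days after treatment. Lung cancer cell lines in 1536-well plates had been treated by pin tool the day after seeding with one drug alone or a fixed anchor-drug dose plus five library-drug doses (not always all listed) in √10 steps, and nuclei were counted on 4× images. Relative viability is the ratio of nuclei in treated wells to nuclei in vehicle wells, taken as the median of duplicate plates.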

Compound in test [2]: CCn1c(-c2nonc2N)nc2c(C#CC(C)(C)O)ncc(OC[C@H]3CCCNC3)c21 + CC(=O)c1c(C)c2cnc(Nc3ccc(N4CCNCC4)cn3)nc2n(C2CCCC2)c1=O [Palbociclib] (partner 0.5 µM)
The procedure, abridged: as §1

Compound in the test “BAM7 + Palbociclib”: CCOC1=CC=CC=C1N=NC2=C(NN(C2=O)C3=NC(=CS3)C4=CC=CC=C4)C [BAM7] + CC(=O)c1c(C)c2cnc(Nc3ccc(N4CCNCC4)cn3)nc2n(C2CCCC2)c1=O [Palbociclib] (partner 0.5 µM)
Summed up: as §1

Compound in test [3]: CCn1c(-c2nonc2N)nc2c(C#CC(C)(C)O)ncc(OC[C@H]3CCCNC3)c21 + CC(=O)Nc1cccc(-n2c(=O)n(C3CC3)c(=O)c3c(Nc4ccc(I)cc4F)n(C)c(=O)c(C)c32)c1 [Trametinib] (partner 0.02 µM)
The procedure, abridged: as §1

On to NCI-H1792, for which the relative viability in test [1] (first compound 0.01 µM) was 0.322; in test [1] (first compound 0.03162 µM) it was 0.276; in test [1] (first compound 0.1 µM), 0.252; in test [1] (first compound 0.3162 µM), 0.233; in test [1] (first compound 1 µM), 0.249; in test [2] (first compound 0.01 µM), 0.607. Also, the relative viability in test [2] (first compound 0.1 µM) stood at 0.601; in test [2] (first compound 0.3162 µM), 0.586; in test [2] (first compound 1 µM), 0.701; with BAM7 + Palbociclib (first compound 0.5 µM) it was 0.642; with BAM7 + Palbociclib (first compound 5 µM), 0.687; in the test with BAM7 + Palbociclib (first compound 15.81 µM), 0.624. For the same cell line, the relative viability in the test with BAM7 + Palbociclib (first compound 50 µM) came out at 0.66; in test [3] (first compound 0.01 µM) it was 0.472; in test [3] (first compound 0.03162 µM), 0.424; in test [3] (first compound 0.1 µM), 0.504; in test [3] (first compound 0.3162 µM) it was 0.344; in test [3] (first compound 1 µM), 0.387.
For NCI-H1793, the relative viability in test [1] (first compound 0.01 µM) worked out at 0.282; in test [1] (first compound 0.03162 µM), 0.322; in test [1] (first compound 0.1 µM), 0.378; in test [1] (first compound 0.3162 µM), 0.346; in test [1] (first compound 1 µM), 0.317; in test [2] (first compound 0.01 µM), 0.295. In addition, the relative viability turned out to be 0.326 in test [2] (first compound 0.03162 µM); 0.295 in test [2] (first compound 0.3162 µM); 0.315 in test [2] (first compound 1 µM); 0.252 with BAM7 + Palbociclib (first compound 0.5 µM); 0.291 with BAM7 + Palbociclib (first compound 5 µM); 0.251 with BAM7 + Palbociclib (first compound 15.81 µM). For the same cell line, the relative viability with BAM7 + Palbociclib (first compound 50 µM) is 0.34; in test [3] (first compound 0.01 µM), 0.388; in test [3] (first compound 0.03162 µM), 0.393; in test [3] (first compound 0.3162 µM), 0.401; in test [3] (first compound 1 µM), 0.436.
On to NCI-H1915, for which the relative viability in test [1] (first compound 0.01 µM) worked out at 0.977; in test [1] (first compound 0.03162 µM) it was 0.941; in test [1] (first compound 0.1 µM) it was 0.957; in test [1] (first compound 0.3162 µM), 0.871; in test [1] (first compound 1 µM), 0.979; in test [2] (first compound 0.01 µM) it was 0.488. For the same cell line, the relative viability stood at 0.545 in test [2] (first compound 0.03162 µM); 0.531 in test [2] (first compound 0.1 µM); 0.487 in test [2] (first compound 0.3162 µM); 0.537 in test [2] (first compound 1 µM); 0.598 with BAM7 + Palbociclib (first compound 0.5 µM); 0.548 in the test with BAM7 + Palbociclib (first compound 5 µM). Also, the relative viability with BAM7 + Palbociclib (first compound 15.81 µM) turned out to be 0.516; with BAM7 + Palbociclib (first compound 50 µM), 0.501; in test [3] (first compound 0.01 µM), 0.293; in test [3] (first compound 0.03162 µM) it was 0.3; in test [3] (first compound 0.1 µM), 0.299; in test [3] (first compound 0.3162 µM) it was 0.281. The relative viability in test [3] (first compound 1 µM) was found to be 0.308.
In the case of NCI-H1944, the relative viability turned out to be 0.357 in test [1] (first compound 0.01 µM); 0.276 in test [1] (first compound 0.03162 µM); 0.284 in test [1] (first compound 0.1 µM); 0.35 in test [1] (first compound 0.3162 µM); 0.334 in test [1] (first compound 1 µM); 0.359 in test [2] (first compound 0.01 µM). In addition, the relative viability was found to be 0.353 in test [2] (first compound 0.03162 µM); 0.348 in test [2] (first compound 0.1 µM); 0.314 in test [2] (first compound 0.3162 µM); 0.325 in test [2] (first compound 1 µM); 0.365 with BAM7 + Palbociclib (first compound 0.5 µM); 0.366 in the test with BAM7 + Palbociclib (first compound 5 µM). The relative viability in the test with BAM7 + Palbociclib (first compound 15.81 µM) stood at 0.281; in the test with BAM7 + Palbociclib (first compound 50 µM), 0.37; in test [3] (first compound 0.01 µM), 0.452; in test [3] (first compound 0.03162 µM), 0.449; in test [3] (first compound 0.1 µM), 0.393; in test [3] (first compound 0.3162 µM), 0.355. Moreover, the relative viability in test [3] (first compound 1 µM) is 0.401.
Consider NCI-H1975, for which the relative viability in test [1] (first compound 0.01 µM) was found to be 0.335; in test [1] (first compound 0.03162 µM) it was 0.255; in test [1] (first compound 0.1 µM), 0.314; in test [1] (first compound 0.3162 µM) it was 0.235; in test [1] (first compound 1 µM), 0.261; in test [2] (first compound 0.01 µM) it was 0.484. Moreover, the relative viability in test [2] (first compound 0.03162 µM) is 0.599; in test [2] (first compound 0.1 µM), 0.51; in test [2] (first compound 0.3162 µM), 0.544; in test [2] (first compound 1 µM), 0.305; with BAM7 + Palbociclib (first compound 0.5 µM), 0.565; in the test with BAM7 + Palbociclib (first compound 5 µM), 0.555. Further, the relative viability is 0.519 with BAM7 + Palbociclib (first compound 15.81 µM); 0.652 in the test with BAM7 + Palbociclib (first compound 50 µM); 0.359 in test [3] (first compound 0.01 µM); 0.393 in test [3] (first compound 0.03162 µM); 0.452 in test [3] (first compound 0.1 µM); 0.281 in test [3] (first compound 0.3162 µM). Moreover, the relative viability in test [3] (first compound 1 µM) was 0.21.
Take NCI-H1993: the relative viability in test [1] (first compound 0.01 µM) came to 1.03; in test [1] (first compound 0.03162 µM), 0.735; in test [1] (first compound 0.1 µM), 0.887; in test [1] (first compound 0.3162 µM) it was 0.866; in test [1] (first compound 1 µM), 0.887; in test [2] (first compound 0.01 µM) it was 0.55. Besides, the relative viability in test [2] (first compound 0.03162 µM) amounted to 0.642; in test [2] (first compound 0.1 µM) it was 0.628; in test [2] (first compound 0.3162 µM), 0.659; in test [2] (first compound 1 µM), 0.542; with BAM7 + Palbociclib (first compound 0.5 µM), 0.502; in the test with BAM7 + Palbociclib (first compound 5 µM), 0.539. Besides, the relative viability worked out at 0.453 with BAM7 + Palbociclib (first compound 15.81 µM); 0.478 in the test with BAM7 + Palbociclib (first compound 50 µM); 0.688 in test [3] (first compound 0.01 µM); 0.493 in test [3] (first compound 0.03162 µM); 0.555 in test [3] (first compound 0.1 µM); 0.464 in test [3] (first compound 0.3162 µM). For the same cell line, the relative viability in test [3] (first compound 1 µM) was 0.507.
NCI-H2009: the relative viability in test [1] (first compound 0.01 µM) was 0.89; in test [1] (first compound 0.03162 µM), 0.855; in test [1] (first compound 0.1 µM), 0.745; in test [1] (first compound 0.3162 µM) it was 0.798; in test [1] (first compound 1 µM), 0.752; in test [2] (first compound 0.01 µM), 0.202. The relative viability in test [2] (first compound 0.03162 µM) was 0.223; in test [2] (first compound 0.1 µM), 0.229; in test [2] (first compound 0.3162 µM) it was 0.186; in test [2] (first compound 1 µM), 0.241; in the test with BAM7 + Palbociclib (first compound 0.5 µM), 0.189; with BAM7 + Palbociclib (first compound 5 µM), 0.189. Moreover, the relative viability amounted to 0.228 with BAM7 + Palbociclib (first compound 15.81 µM); 0.29 in the test with BAM7 + Palbociclib (first compound 50 µM); 0.268 in test [3] (first compound 0.01 µM); 0.274 in test [3] (first compound 0.03162 µM); 0.245 in test [3] (first compound 0.1 µM); 0.301 in test [3] (first compound 0.3162 µM). The relative viability in test [3] (first compound 1 µM) turned out to be 0.259.
